According to US7888360B2, “Pyridine and pyrimidine derivatives as inhibitors of histone deacetylase” (Janssen Pharmaceutica N.V., priority 2006, dated 2011):
≈ marks a conversion by molar mass, not a printed value. Where two headings read alike, the source gives them in different places.

Experiments:
[1] = Kinetic solubility in aqueous media C.3.b (BD Gentest Solubility Scanner); format: physicochemical; conditions: aqueous buffer
Protocol: DMSO-stock solutions from 5000-9.8 μM (1/2 dilutions) are made in DMSO in a 96 well stock solution plate (200 μl per well). After each dilution the samples are mixed. Aliquots of these DMSO solutions (2 μl) are then transferred into 2 other 96 well buffer plates, containing 200 μl per well aqueous buffer. Each of the buffer plates contains either aqueous buffer pH 7.4 or aqueous buffer pH 4.0. After the last dilution the buffer plates are mixed and the samples are stabilized at room temperature for ½ hour. Dilution is done in duplicate for each compound to exclude occasional errors. Mixtures are then scanned in the BD Gentest Solubility Scanner for the occurrence of precipitation. Based on the absence/presence of precipitate in the mixtures the kinetic solubility is calculated by interpolation. Ranking is performed into the 3 classes. […] (see Table F-2).

[2] = test system: A2780 ovarian carcinoma cells; test: Antiproliferative activity on A2780 cells (MTT); format: cell-based, human; conditions: four days of incubation; for IC50: Homo sapiens, A2780, 96 h, read-out: Cellular activity pIC50 C.2. (converted)
Protocol: All compounds tested were dissolved in DMSO and further dilutions were made in culture medium. Final DMSO concentrations never exceeded 0.1% (v/v) in cell proliferation assays. Controls contained A2780 cells and DMSO without compound and blanks contained DMSO but no cells. MTT was dissolved at 5 mg/ml in PBS. A glycine buffer comprised of 0.1 M glycine and 0.1 M NaCl buffered to pH 10.5 with NaOH (1 N) was prepared (all reagents were from Merck).
The human A2780 ovarian carcinoma cells (a kind gift from Dr. T. C. Hamilton [Fox Chase Cancer Centre, Pa., USA]) were cultured in RPMI 1640 medium supplemented with 2 mM L-glutamine, 50 μg/ml gentamicin and 10% fetal calf serum. Cells were routinely kept as monolayer cultures at 37° C. in a humidified 5% CO2 atmosphere. Cells were passaged once a week using a trypsin/EDTA solution at a split ratio of 1:40. All media and supplements were obtained from Life Technologies. Cells were free of mycoplasma contamination as determined using the Gen-Probe Mycoplasma Tissue Culture kit (supplier: BioMérieux).
Cells were seeded in NUNC™ 96-well culture plates (Supplier: Life Technologies) and allowed to adhere to the plastic overnight. Densities used for plating were 1500 cells per well in a total volume of 200 μl medium. After cell adhesion to the plates, medium was changed and drugs and/or solvents were added to a final volume of 200 μl. Following four days of incubation, medium was replaced by 200 μl fresh medium and cell density and viability was assessed using an MTT-based assay. To each well, 25 μl MTT solution was added and the cells were further incubated for 2 hours at 37° C. The medium was then carefully aspirated and the blue MTT-formazan product was solubilized by addition of 25 μl glycine buffer followed by 100 μl of DMSO. […] Within an experiment, the results for each experimental condition are the mean of 3 replicate wells. For initial screening purposes, compounds were tested at a single fixed concentration of 10^−6 M. For active compounds, the experiments were repeated to establish full concentration-response curves. For each experiment, controls (containing no drug) and a blank incubation (containing no cells or drugs) were run in parallel. The blank value was subtracted from all control and sample values. For each sample, the mean value for cell growth (in absorbance units) was expressed as a percentage of the mean value for cell growth of the control. […] Herein the effects of test compounds are expressed as pIC50 (the negative log value of the IC50-value) (see Table F-2).

[3] = Solubility C.3.c (chemiluminescent nitrogen detector); format: physicochemical; conditions: aqueous buffer; pH = 2.3; read-out: Solubility C.3.c. pH = 2.3 mg/ml
From the text: The solubility of a compound, at different pH's, can also be measured with the use of a chemiluminescent nitrogen detector (see Table F-2).

[4] = target: histone deacetylase (HeLa nuclear extracts); test: In vitro assay for inhibition of histone deacetylase (Fluor de Lys, HeLa nuclear extracts); format: biochemical; parameters: key: pIC50 = negative log of IC50; conditions: Fluor de Lys substrate
From the text: The HDAC Fluorescent Activity Assay/Drug Discovery Kit of Biomol (cat. No: AK-500-0001) was used. The HDAC Fluorescent Activity Assay is based on the Fluor de Lys (Fluorogenic Histone deAcetylase Lysyl) substrate and developer combination. The Fluor de Lys substrate, comprises an acetylated lysine side chain. Deacetylation of the substrate sensitizes the substrate so that, in the second step, treatment with the Fluor de Lys developer produces a fluorophore.
HeLa nuclear extracts (supplier: Biomol) were incubated at 60 μg/ml with 75 μM of substrate. The Fluor de Lys substrate was added in a buffer containing 25 mM Tris, 137 mM NaCl, 2.7 mM KCl and 1 mM MgCl2.6H2O at pH 7.4. After 30 min, 1 volume of the developer was added. The fluorophore was excited with 355 nm light and the emitted light (450 nm) was be detected on a fluorometric plate reader.
For each experiment, controls (containing HeLa nuclear extract and buffer), a blank incubation (containing buffer but no HeLa nuclear extract) and samples (containing compound dissolved in DMSO and further diluted in buffer and HeLa nuclear extract) were run in parallel. In first instance, compounds were tested at a concentration of 10^−5M. […] All sample were tested 4 times. In each test the blank value was subtracted from both the control and the sample values. The control sample represented 100% of substrate deactylation. For each sample the fluorescence was expressed as a percentage of the mean value of the controls. […] Herein the effects of test compounds are expressed as pIC50 (the negative log value of the IC50-value) (see Table F-2).

[5] = Kinetic solubility in aqueous media C.3.a (nephelometer); format: physicochemical; conditions: aqueous buffer, kinetic from dmso stock; phosphate citrate buffer pH 7.4, turbidity score
Protocol: In the first dilution step, 10 μl of a concentrated stock-solution of the active compound, solubilized in DMSO (5 mM), was added to 100 μl phosphate citrate buffer pH 7.4 and mixed. In the second dilution step, an aliquot (20 μl) of the first dilution step was further dispensed in 100 μl phosphate citrate buffer pH 7.4 and mixed. Finally, in the third dilution step, a sample (20 μl) of the second dilution step was further diluted in 100 μl phosphate citrate buffer pH 7.4 and mixed. All dilutions were performed in 96-well plates. Immediately after the last dilution step the turbidity of the three consecutive dilution steps were measured with a nephelometer. Dilution was done in triplicate for each compound to exclude occasional errors. Based on the turbidity measurements a ranking is performed into 3 classes. Compounds with high solubility obtained a score of 3 and for this compounds the first dilution is clear. Compounds with medium solubility obtained a score of 2. For these compounds the first dilution is unclear and the second dilution is clear.

[6] = not given; remark: listed apart in the source
[7] = test system: p21 promoter reporter A2780 clone tumour; test: p21 induction in vivo method C.6.c (tumour fluorescence in nude mice); conditions: dosed orally or intravenously daily during 6 days, 20-40 mpk
Protocol: Another method tests the capacity of compounds to induce p21 as the consequence of HDAC inhibition at the cellular level. […] The reporter gene is a fluorescent protein and the expression of the reporter gene is measured as the amount of fluorescent light emitted (see example C.6.b.). The last method is an in vivo method wherein mice are used for screening the pharmaceutical activity of a compound. The above described stably transformed tumour cells can be administered to mice in an amount sufficient to effect production of a tumour. After the tumour cells had sufficient time to form a tumour, a potentially active compound can be administered to the animals and the effect of said compound on the tumour cells is evaluated by measuring the expression of the reporter gene. Incubation with pharmaceutical active compounds will result in an increase of reporter gene expression compared to the control levels (see example C.6.c.)
A selected clone was injected subcutaneous (10^7 cells/200 μl) into the flank of nude mice and a calliper measurable tumour was obtained after 12 days. […] Tumours were evaluated for fluorescence by the in-house developed Automated Whole Body Imaging System (Fluorescent stereomicroscope type Olympus® SZX12 equipped with a GFP filter and coupled to a CCD camera type JAI® CV-M90 controlled by a software package based on the IMAQ Vision Software from National Instruments®).

[8] = kinetic from dmso stock, pH = 4, score, read-out: Solubility C.3.b pH = 4.
[9] = pH 7.4, kinetic from dmso stock, pH = 7, score, read-out: Solubility C.3.b. pH = 7

Structure (SMILES) | solubility at 0.5 h [1, 8] | solubility at 0.5 h [1, 9] | IC50 [2] | solubility [3] | Enzymatic activity pIC50 C.1. [4] | melting point | solubility [5] | Cellular activity pIC50 C.2. [2] | % metabolism ([6]; human, 15 min, 5 μM) | % metabolism ([6]; after 15 min of incubation with active microsomes, compound 5 μM) | tumour fluorescence (p21 reporter) in vivo [7]
CC(C)(C)c1ccc(C(C(O)CO)N2CCN(c3ncc(C(=O)NO)cn3)CC2)cc1 (stereo not drawn) [Compound 10] | – | – | – | – | 7.0 | – | > 455 µM | 7.1 | – | – | –
COc1cc(N)c(Cl)cc1C(=O)NC1CCN(CCCOc2ccc(F)cc2)CC1OC (stereo not drawn) [Cisapride] | – | – | – | – | – | – | – | – | 45% | – | –
CCCO [propanol] | – | – | – | – | – | – | – | – | – | 25% | –
CCN(CC1CCN(c2ncc(C(=O)NO)cn2)CC1)C(CO)c1cc2ccccc2o1 (stereo not drawn) [Compound 4] | ≤ 10 µM | 10 to 50 µM (≈ 4.4 to 22 µg/mL) | 251 nM | – | 7.9 | 90 °C | – | – | – | – | –
CC(C)(C)c1ccc(C(C(O)CO)N2CCN(c3ncc(C(=O)NO)cn3)CC2)cc1 (stereo not drawn) [Compound 5] | – | – | 100 nM | 1390 µg/mL (≈ 3.24 mM) | 7.5 | 138 to 154 °C | – | – | – | – | –

Further lines, with some results ahead:

solubility at 0.5 h [1, 8] | solubility at 0.5 h [1, 9] | IC50 [2] | solubility [3] | Enzymatic activity pIC50 C.1. [4] | melting point | solubility [5] | Cellular activity pIC50 C.2. [2] | % metabolism ([6]; human, 15 min, 5 μM) | Structure (SMILES) | % metabolism ([6]; after 15 min of incubation with active microsomes, compound 5 μM) | tumour fluorescence (p21 reporter) in vivo [7]
10 to 50 µM (≈ 3.93 to 19.7 µg/mL) | 10 to 50 µM (≈ 3.93 to 19.7 µg/mL) | 100 nM | 2900 µg/mL (≈ 7.37 mM) | 10.0 | 136 °C | – | – | – | O=C(NO)c1cnc(N2CCN(C(CO)c3cccc4ccccc34)CC2)nc1 (stereo not drawn) [Compound 1] | – | –
– | – | 50.1 nM | – | 9.8 | – | – | – | – | O=C(NO)c1cnc(N2CCN(C(CO)c3csc4ccccc34)CC2)nc1 (stereo not drawn) [Compound 9] | – | –
≤ 10 µM | ≤ 10 µM | 20 nM | – | 9.7 | – | – | – | – | O=C(NO)c1cnc(N2CCN(C(CO)c3ccc4ccccc4c3)CC2)nc1 (stereo not drawn) [Compound 7] | – | –
10 to 50 µM (≈ 5.23 to 26.1 µg/mL) | 10 to 50 µM (≈ 5.23 to 26.1 µg/mL) | < 31.6 nM | – | >9 | 206 °C | – | – | – | O=C(NO)c1cnc(N2CCN(C(CO)c3cn(S(=O)(=O)c4ccccc4)c4ccccc34)CC2)nc1 (stereo not drawn) [Compound 3] | – | –
≤ 10 µM | 10 to 50 µM (≈ 3.99 to 20 µg/mL) | 15.8 nM | 3250 µg/mL (≈ 8.14 mM) | 10.1 | 165 °C | – | – | – | O=C(NO)c1cnc(N2CCN(C(CO)c3cc4ccccc4s3)CC2)nc1 (stereo not drawn) [Compound 2] | – | –
10 to 50 µM (≈ 3.83 to 19.2 µg/mL) | 10 to 50 µM (≈ 3.83 to 19.2 µg/mL) | 31.6 nM | 2200 µg/mL (≈ 5.74 mM) | 9.0 | – | – | – | – | O=C(NO)c1cnc(N2CCN(C(CO)c3cc4ccccc4o3)CC2)nc1 (stereo not drawn) [Compound 8] | – | –
– | – | 39.8 nM | 900 µg/mL (≈ 2.1 mM) | 7.9 | 163 to 171 °C | > 455 µM | – | – | CC(C)(C)c1ccc([C@H]([C@H](O)CO)N2CCN(c3ncc(C(=O)NO)cn3)CC2)cc1 [Compound 6] | – | comparable to R306465
